US20050288255A1, “Modulation of lysophosphatidylcholine and treatment of diet-induced conditions” (priority 2004, published 2005)

How the values were obtained:
Type in all cases: cell-based
HepG2 cells = experiment: Insulin-stimulated [14C]glucose conversion to glycogen in HepG2 cells with varying LPC; conditions: 100 nM insulin, under reduced levels of lysophosphatidylcholine, FIG. 5(a)
Procedure: (§1) Effects of LPC on glucose metabolism were assessed using (a) HepG2 cells as a model of liver cells, (b) differentiated L6 myotubes as a model of skeletal muscle cells and (c) differentiated 3T3L1 cells as a model of adipocytes. To assess usage of glucose for glycogen biosynthesis, cells were incubated in Krebs Ringer Hepes medium with 5 mM [^14C]glucose, 100 nM insulin, and varying concentrations of LPC. At the end of the incubation period, the cells were washed and detached from the plates with 30% KOH. Carrier glycogen was then added to the cell lysate at a concentration of 40 mg/ml and then boiled for 30 min. Glycogen was precipitated from the solution by the addition of 800 μl 95% ice-cold ethanol and centrifuged at 1000×g. The pellet was re-suspended in buffer, and an aliquot of the sample was counted in a scintillation counter to determine the amount of [^14C]glucose converted to glycogen. Glucose metabolism by differentiated 3T3L1 cells was assessed based on cellular uptake of [^3H]deoxyglucose. The 3T3L1 cells were incubated in Krebs Ringer Hepes medium with 5 mM [^3H]deoxyglucose, 100 nM insulin, and varying concentration of LPC. Glucose uptake was assessed based on cellular accumulation of [^3H]deoxyglucose after a 30 min incubation period.

L6 myotube = experiment: Insulin-stimulated [14C]glucose conversion to glycogen in differentiated L6 myotubes with varying LPC; conditions: 100 nM insulin, under reduced levels of lysophosphatidylcholine, FIG. 5(b)
Procedure: as §1

3T3L1 adipocytes = experiment: Insulin-stimulated [3H]deoxyglucose uptake in differentiated 3T3L1 adipocytes with varying LPC; conditions: 100 nM insulin, 30 min, under reduced levels of lysophosphatidylcholine, FIG. 5(c)
Procedure: as §1

Measured: insulin-stimulated glucose metabolism

lysophosphatidylcholine
increased: all assays above
